Results reported in US10258603B2 (priority 2014, dated 2019).

Molecular target: T1, TAF1-BD2 (Homo sapiens, UniProt P21675)
T1 sequence (P21675 1525-1656): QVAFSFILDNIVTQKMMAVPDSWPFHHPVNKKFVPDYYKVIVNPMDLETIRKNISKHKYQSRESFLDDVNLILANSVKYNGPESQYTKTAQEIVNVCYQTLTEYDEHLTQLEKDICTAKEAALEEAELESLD
Test: TAF1-BD2 TR-FRET Binding Assay
Details: Assay: TAF-1
Protocol: Specifically, in a 384 well ProxiPlate TAF1-BD2 (6 nM final) was combined with biotin-ligand (50 nM final) in 50 mM HEPES (pH 7.5), 50 mM NaCl, 1 mM TCEP, 0.01% (w/v) BSA, and 0.008% (w/v) Brij-35 either in the presence of DMSO (final 0.2% DMSO) or compound dilution series in DMSO. After 10 minutes incubation at room temperature, a mixture Eu-W1024 Anti-6×His antibody (Perkin Elmer AD0110) and SureLight™ Allophycocyanin-Streptavidin (APC-SA, Perkin Elmer CR130-100) were added to a final concentrations of 0.2 nMolar antibody and 25 nMolar APC-SA, respectively. After twenty minutes of equilibration, the plates were read on an Envision instrument and IC50s calculated using a four parameter non-linear curve fit.

Row | IC50 | Compound
1 | 0.97 µM | CC=CCn1cc(C(=O)NC(C)(C)C)c2cc[nH]c2c1=O [Example 15, 6-but-2-enyl-N-tert-butyl-7-oxo-1H-pyrrolo[2,3-c]pyridine-4-carboxamide]
2 | 0.32 µM | CN1CCC(NC(=O)c2cn(C)c(=O)c3[nH]ccc23)CC1 [Example 4, 6-methyl-N-(1-methyl-4-piperidyl)-7-oxo-1H-pyrrolo[2,3-c]pyridine-4-carboxamide]
3 | 6.4 µM | Cn1cc(C(=O)N2CCCCC2)c2cc[nH]c2c1=O [Example 70, 6-methyl-4-(piperidine-1-carbonyl)-1H-pyrrolo[2,3-c]pyridin-7-one]
4 | 0.67 µM | Cn1cc(C(=O)NCC2CCCC2)c2cc[nH]c2c1=O [Example 83, N-(cyclopentylmethyl)-6-methyl-7-oxo-1H-pyrrolo[2,3-c]pyridine-4-carboxamide]
5 | 0.15 µM | CN1CCCC(CNC(=O)c2cn(C)c(=O)c3[nH]ccc23)C1 (stereo not shown) [Example 24, 6-methyl-N-[(1-methyl-3-piperidyl)methyl]-7-oxo-1H-pyrrolo[2,3-c]pyridine-4-carboxamide]
6 | 2.5 µM | Cn1cc(C(=O)N2CCC(c3ccncn3)CC2)c2cc[nH]c2c1=O [Example 56, 6-methyl-4-(4-pyrimidin-4-ylpiperidine-1-carbonyl)-1H-pyrrolo[2,3-c]pyridin-7-one]
7 | 9.9 µM | CN(CC1CCN(CC2CCCCO2)CC1)C(=O)c1cn(C)c(=O)c2[nH]ccc12 (stereo not shown) [Example 235]
8 | 18 µM | CN(CC1CCN(Cc2cccc(Cl)c2)CC1)C(=O)c1cn(C)c(=O)c2[nH]ccc12 [Example 199]
9 | 14 µM | CN(CC1CCN(CC2CCOC2)CC1)C(=O)c1cn(C)c(=O)c2[nH]ccc12 (stereo not shown) [Example 236]
10 | 0.44 µM | Cn1cc(C(=O)NC2CCN(c3ccncn3)CC2)c2cc[nH]c2c1=O [Example 148, 6-methyl-7-oxo-N-(1-pyrimidin-4-yl-4-piperidyl)-1H-pyrrolo[2,3-c]pyridine-4-carboxamide]
11 | 1.5 µM | Cn1cc(C(=O)N2CCC(c3ccc(Cl)cc3)CC2)c2cc[nH]c2c1=O [Example 48, 4-[4-(4-chlorophenyl)piperidine-1-carbonyl]-6-methyl-1H-pyrrolo[2,3-c]pyridin-7-one]
12 | 0.34 µM | Cn1cc(C(=O)NC2CCN(c3ncccn3)CC2)c2cc[nH]c2c1=O [Example 44, 6-methyl-7-oxo-N-(1-pyrimidin-2-yl-4-piperidyl)-1H-pyrrolo[2,3-c]pyridine-4-carboxamide]
13 | 5.7 µM | COCCN(C(=O)c1cn(C)c(=O)c2[nH]ccc12)C1CCN(C)CC1 [Example 84]
14 | 0.99 µM | Cn1cc(C(=O)NC2CCN(c3nccc(C#N)n3)CC2)c2cc[nH]c2c1=O [Example 156, N-[1-(4-cyanopyrimidin-2-yl)-4-piperidyl]-6-methyl-7-oxo-1H-pyrrolo[2,3-c]pyridine-4-carboxamide]
15 | 0.32 µM | Cc1cnc(N2CCC(NC(=O)c3cn(C)c(=O)c4[nH]ccc34)CC2)nc1 [Example 149, 6-methyl-N-[1-(5-methylpyrimidin-2-yl)-4-piperidyl]-7-oxo-1H-pyrrolo[2,3-c]pyridine-4-carboxamide]
16 | 3.7 µM | CC=CCn1cc(C(=O)NCCNC(C)=O)c2cc[nH]c2c1=O [Example 14, N-(2-acetamidoethyl)-6-but-2-enyl-7-oxo-1H-pyrrolo[2,3-c]pyridine-4-carboxamide]
17 | 0.33 µM | Cn1cc(C(=O)NC2CCN(c3cccnn3)CC2)c2cc[nH]c2c1=O [Example 155, 6-methyl-7-oxo-N-(1-pyridazin-3-yl-4-piperidyl)-1H-pyrrolo[2,3-c]pyridine-4-carboxamide]
18 | 0.51 µM | Cn1cc(C(=O)NCC2CCN(C(=O)OC(C)(C)C)C2)c2cc[nH]c2c1=O (stereo not shown) [Example 137]
19 | 7 µM | CCCN1CCC(N(C(=O)c2cn(C)c(=O)c3[nH]ccc23)C2CC2)CC1 [Example 82, N-cyclopropyl-6-methyl-7-oxo-N-(1-propyl-4-piperidyl)-1H-pyrrolo[2,3-c]pyridine-4-carboxamide]
20 | 1.5 µM | Cn1cc(C(=O)N2CCC(Cc3ccccn3)CC2)c2cc[nH]c2c1=O [Example 58, 6-methyl-4-[4-(2-pyridylmethyl)piperidine-1-carbonyl]-1H-pyrrolo[2,3-c]pyridin-7-one]
21 | 0.21 µM | Cn1cc(C(=O)NC2CCN(c3ccccn3)CC2)c2cc[nH]c2c1=O [Example 42, 6-methyl-7-oxo-N-[1-(2-pyridyl)-4-piperidyl]-1H-pyrrolo[2,3-c]pyridine-4-carboxamide]
22 | 0.26 µM | Cn1cc(C(=O)NC2CCN(c3ccccc3)CC2)c2cc[nH]c2c1=O [Example 171, 6-methyl-7-oxo-N-(1-phenyl-4-piperidyl)-1H-pyrrolo[2,3-c]pyridine-4-carboxamide]
23 | 6.9 µM | CCN1CCC(CN(C)C(=O)c2cn(C)c(=O)c3[nH]ccc23)C1 (stereo not shown) [Example 27, N-[(1-ethylpyrrolidin-3-yl)methyl]-N,6-dimethyl-7-oxo-1H-pyirolo[2,3-c]pyridine-4-carboxamide]
24 | 4.7 µM | CC=CCn1cc(C(=O)NCC2CN(C(=O)OC(C)(C)C)C2)c2cc[nH]c2c1=O [Example 10, tert-butyl 3-[[(6-but-2-enyl-7-oxo-1H-pyrrolo[2,3-c]pyridine-4-carbonyl)amino]methyl]azetidine-1-carboxylate]
25 | 0.36 µM | Cc1ccnc(N2CCC(NC(=O)c3cn(C)c(=O)c4[nH]ccc34)CC2)n1 [Example 150, 6-methyl-N-[1-(4-methylpyrimidin-2-yl)-4-piperidyl]-7-oxo-1H-pyrrolo[2,3-c]pyridine-4-carboxamide]
26 | 5 µM | CN(C(=O)c1cn(C)c(=O)c2[nH]ccc12)C1CCN(CCc2ccccc2)CC1 [Example 252, N,6-dimethyl-7-oxo-N-(1-phenethyl-4-piperidyl)-1H-pyrrolo[2,3-c]pyridine-4-carboxamide]

Molecular target: T2, CECR2 (Homo sapiens, UniProt Q9BXF3)
T2 construct: 424-538 was cloned, expressed, and purified to homogeneity; Flag; made in house
Test: CECR2 TR-FRET Binding Assay
Details: IC50 (uM)
From the text: IC50 Measurements for Inhibitors Using CECR2 TR-FRET Binding Assay

T2 sequence (Q9BXF3 424-538 limits assumed): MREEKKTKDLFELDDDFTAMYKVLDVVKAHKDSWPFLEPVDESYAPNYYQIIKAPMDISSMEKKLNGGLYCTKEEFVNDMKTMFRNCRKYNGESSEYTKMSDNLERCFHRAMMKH

Row | Compound | IC50
27 | C=CCn1cc(C(=O)N(C)C2CCN(c3cc(C)nc(C)n3)CC2)c2cc[nH]c2c1=O [Example 165, 6-allyl-N-[1-(2,6-dimethylpyrimidin-4-yl)-4-piperidyl]-N-methyl-7-oxo-1H-pyrrolo[2,3-c]pyridine-4-carboxamide] | 0.087 µM
28 | C=CCn1cc(C(=O)N(C)C2CCN(c3cc(OC)ncn3)CC2)c2cc[nH]c2c1=O [Example 162, 6-allyl-N-[1-(6-methoxypyrimidin-4-yl)-4-piperidyl]-N-methyl-7-oxo-1H-pyrrolo[2,3-c]pyridine-4-carboxamide] | 0.12 µM

Same assay, conditions: read-out: IC50

Row | IC50 | Compound
29 | 1.2 µM | CN(C(=O)c1cn(C)c(=O)c2[nH]ccc12)C1CCN(CC2CC2)CC1 [Example 208]
30 | 1.8 µM | CC1CCCN(C2CCN(C(=O)c3cn(C)c(=O)c4[nH]ccc34)CC2)C1 (stereo not shown) [Example 67, 6-methyl-4-[4-(3-methyl-1-piperidyl)piperidine-1-carbonyl]-1H-pyrrolo[2,3-c]pyridin-7-one]
31 | 0.091 µM | C=CCn1cc(C(=O)N(C)C2CCN(c3ncnc4c3CCC4)CC2)c2cc[nH]c2c1=O [Example 163, 6-allyl-N-[1-(6,7-dihydro-5H-cyclopenta[d]pyrimidin-4-yl)-4-piperidyl]-N-methyl-7-oxo-1H-pyrrolo[2,3-c]pyridine-4-carboxamide]
32 | 0.18 µM | C=CCn1cc(C(=O)N(C)C2CCN(c3ccnc(C#N)n3)CC2)c2cc[nH]c2c1=O [Example 160, 6-allyl-N-[1-(2-cyanopyrimidin-4-yl)-4-piperidyl]-N-methyl-7-oxo-1H-pyrrolo[2,3-c]pyridine-4-carboxamide]
33 | 0.59 µM | CCN1CCC(CN(C)C(=O)c2cn(C)c(=O)c3[nH]ccc23)CC1 [Example 191]
34 | 0.053 µM | C=CCn1cc(C(=O)N(C)C2CCOc3ccccc32)c2cc(C)[nH]c2c1=O (stereo not shown) [Example 277]
35 | 0.41 µM | CN(C(=O)c1cn(C)c(=O)c2[nH]ccc12)C1CCN(c2cccnn2)CC1 [Example 145, N,6-dimethyl-7-oxo-N-(1-pyridazin-3-yl-4-piperidyl)-1H-pyrrolo[2,3-c]pyridine-4-carboxamide]
36 | 0.15 µM | C=CCn1cc(C(=O)N(C)C2CCCc3c(C)cccc32)c2cc(C)[nH]c2c1=O (stereo not shown) [Example 285]
37 | 0.43 µM | Cc1ccnc(N2CCC(N(C)C(=O)c3cn(C)c(=O)c4[nH]ccc34)CC2)n1 [Example 144, N,6-dimethyl-N-[1-(4-methylpyrimidin-2-yl)-4-piperidyl]-7-oxo-1H-pyrrolo[2,3-c]pyridine-4-carboxamide]
38 | 0.98 µM | CN(C(=O)c1cn(C)c(=O)c2[nH]ccc12)C1CCN(CCc2ccccc2F)CC1 [Example 253]
39 | 6.2 µM | C=CCn1cc(C(=O)N(C)C2C3CN(c4ccncn4)CC32)c2cc[nH]c2c1=O (stereo not shown) [Example 251]
40 | 2.1 µM | CC(C)N1CCC(CN(C)C(=O)c2cn(C)c(=O)c3[nH]ccc23)C1 (stereo not shown) [Example 23, N-[(1-isopropylpyrrolidin-3-yl)methyl]-N,6-dimethyl-7-oxo-1H-pyrrolo[2,3-c]pyridine-4-carboxamide]
41 | 0.71 µM | CN(CC1CCN(C2CCCC2)CC1)C(=O)c1cn(C)c(=O)c2[nH]ccc12 [Example 205]
42 | 0.47 µM | CN(CCC1CCN(C2CCC2)CC1)C(=O)c1cn(C)c(=O)c2[nH]ccc12 [Example 184]
43 | 0.4 µM | CN(C(=O)c1cn(C)c(=O)c2[nH]ccc12)C1CCN(c2cnccn2)CC1 [Example 143, N,6-dimethyl-7-oxo-N-(1-pyrazin-2-yl-4-piperidyl)-1H-pyrrolo[2,3-c]pyridine-4-carboxamide]
44 | 0.69 µM | CCc1cccc(N2CCC(N(C)C(=O)c3cn(C)c(=O)c4[nH]ccc34)CC2)c1 [Example 177, N-[1-(3-ethylphenyl)-4-piperidyl]-N,6-dimethyl-7-oxo-1H-pyrrolo[2,3-c]pyridine-4-carboxamide]
45 | 0.79 µM | CN(CC1CCN(CC2CCCOC2)CC1)C(=O)c1cn(C)c(=O)c2[nH]ccc12 (stereo not shown) [Example 230]
46 | 0.012 µM | C=CCn1cc(C(=O)N(C)C2CCC(C)(C)c3ccccc32)c2cc(C)[nH]c2c1=O (single isomer, unassigned) [Example 279]
